Experimental data as given in US20110178154A1, “GENE EXPRESSION PROFILE THAT PREDICTS OVARIAN CANCER SUBJECT RESPONSE TO CHEMOTHERAPY” (priority 2007, published 2011).
d = 2'-deoxy (DNA); r = 2'-OH (RNA)

What was measured:
[1] = test system: A2780CP20 ovarian cancer cell line; test: MTS proliferation assay: cisplatin sensitivity after siRNA pretreatment; format: cell-based; details: for fold change in cisplatin sensitivity: A2780CP20 cells, compared to siNEG
Description: Cell culture and RNA interference. Ovarian cancer cell lines were routinely maintained in medium supplemented with 10% fetal bovine serum and 2 mM L-glutamine. SKOV3 and OVCAR3 cell lines were maintained in RPMI-1640 medium, OVCA420 and OVCA432 were maintained in 105/199 medium and OVCA420 and CAOV3 cells were maintained in DMEM medium. For 3-(4,5-dimethylthiazol-2-yl)-5-(3-carboxymethoxyphenyl)-2-(4-sulfophenyl)-2H-tetrazolium (MTS) assays, transfections mediated by cationic lipid were performed in 96-well plates. Cells were seeded on a complex of the appropriate siRNA (QIAGEN® Inc., Germantown, Md.) and Oligofectamine (Invitrogen, Carlsbad, Calif.) in unsupplemented growth medium. Final amounts in each well were 50 nM siRNA, 0.5 ul Oligofectamine, and 3000 cells in 100 μL medium. The siRNA target sequences of the synthetic siRNAs were designed against the reference RNA sequence.
MTS proliferation assay. Cell line sensitivity to chemotherapeutic reagents such as cisplatin or taxol was determined by measuring formazan production from MTS (PROMEGA®, Madison, Wis.), with drug concentrations tested in octuplicates in each experiment. For example, serial dilutions of cisplatin or taxol were made shortly before addition to cells. At 48 hours after transfection and seeding, cells were washed by aspiration of the supernatant, and 150 uL of drug-containing medium is added. Another 48 hours later, the drug solution was aspirated and 120 uL MTS-containing medium is added according to the manufacturer's protocol (PROMEGA® #G3580, Madison, Wis.). The plates were incubated at 37° C. and read at 490 nm after 3 hours. Using GraphPad PRISM® 4.02 (GraphPad Software Inc., San Diego, Calif.), the drug concentrations were log-transformed and nonlinear regression is performed on the A490 data using the sigmoidal dose response model with variable slope. Mean EC50 values, standard errors, and 95% confidence intervals were determined from the logistic fits.
(§1) As described above in Example 1, A2780CP20 ovarian cancer cell lines were transfected with siPOLH-2 or siPOLH-5, treated with cisplatin starting 48 hours later, and assayed with MTS 48 hours thereafter. Viable cell number data was acquired by reading the fluorescence emissions at 490 nm. Using GraphPad Prism 4.02, cisplatin drug concentrations were log-transformed and nonlinear regression performed on the A490 data using the sigmoidal dose response model with variable slope to generate the IC50 curves. IC50 values and 95% confidence intervals were determined from the logistic fits.
as §1, with “A2780CP20” for “As described above in Example 1, A2780CP20”, “siREV3L-1” for “siPOLH-2”, “siREV3L-2,” for “siPOLH-5,”, “thereafter (as described above, including Example 1).” for “thereafter.”, “fits. […] Further, a 2.1 fold change in cisplatin sensitivity was detected for siREV3L-1 pretreatment and a 2.9 fold change in such sensitivity for siREV3L-2 pretreatment.” for “fits.”
as §1, with “FIG. 5 illustrates the effect of pretreatment with RNAi against POLH and REV3L on cisplatin resistance.” for “As described above in Example 1,”, “cotransfected” for “transfected”, “siPOLH-5 and siREV3L-2,” for “siPOLH-2 or siPOLH-5,”

POLH = test: Western blot analysis for POLH after POLH siRNA treatment; format: cell-based; details: lysates at 24, 48, 72 and 96 hours; 5 ul of 1 ug/ul POLH-siRNA
Description: Cell lysates were collected and examined by Western blot analysis for POLH. After treating cells with 5 ul of 1 ug/ul POLH-siRNA, lysates were collected at 24, 48, 72 and 96 hours and then analyzed for down-regulation of POLH.

Substance	cell sensitivity to cisplatin when compared to cells treated with siNEG [1]	fold change in cisplatin sensitivity [1] [fold]	POLH expression (down-regulation of POLH) (POLH)
siPOLH-2: synthetic siRNA against POLH (exon 10), Qiagen cat #SI00089012, SEQ ID NO:8 sense and SEQ ID NO:9 antisense (sense CCAUUUAGGUGCUGAGUUATT; antisense UAACUCAGCACCUAAAUGGAG; sugars from the 5' end r19 d2, backbone not given here)	significantly increased	1.6	–
siPOLH-5: synthetic siRNA against POLH (exon 11), Qiagen cat #SI02663619, SEQ ID NO:11 sense and SEQ ID NO:12 antisense (sense GGUUGUGAGCAUUCGUGUATT; antisense UACACGAAUGCUCACAACCTG; sugars from the 5' end r19 d2, backbone not given here)	significantly increased	1.9	inhibit POLH RNA expression
siREV3L-1: synthetic siRNA against REV3L (exon 18), Qiagen cat #SI00045626, SEQ ID NO:2 sense and SEQ ID NO:3 antisense (sense GGAUGUAGUCAAACUGCAATT; antisense UUGCAGUUUGACUACAUCCAG; sugars from the 5' end r19 d2, backbone not given here)	significantly increased	2.1	–
siREV3L-2: synthetic siRNA against REV3L (exon 17), Qiagen cat #SI00045633, SEQ ID NO:5 sense and SEQ ID NO:6 antisense (sense CACUGGAAUUAAUGCACAATT; antisense UUGUGCAUUAAUUCCAGUGTG; sugars from the 5' end r19 d2, backbone not given here)	significantly increased	2.9	–
